Results published in patent US20070048247A1, “Deodorizing tablets” (Kimberly-Clark Worldwide, Inc., priority 2005, published 2007).

Tests used:
[1] = Example 2 urine odor panel ranking (1.6 millimolar); set-up: species or system Human; settings: 1.6 millimolar in urine, after 24 hours
From the text: The powders chosen for this example were powders of Acid Blue 25, Acid Blue 45, Acid Blue 129, FD&C Blue No.1 (a triarylmethane), Acid Green 27, Acid Green 41, and Mordant Violet 5 (Alizarin Violet 3R) (commercially available from Sigma-Aldrich Chemical Co., Inc. of St. Louis, Mo.), as well as D&C Green No. 5 (commercially available from Noveon Hilton Davis, Inc. of Cincinnati, Ohio). Human female urine was initially collected and pooled by a nurse on staff at Kimberly-Clark Corporation. […] Powders of the aforementioned quinone compounds were weighed and placed into the mason jars containing 50 milliliters of urine so that the final concentration of the powder was 1.6 millimolar (equivalent to 0.1 wt. %). […] A score of “10” was assigned to the most malodorous jar and a score of “1” was assigned to the least malodorous jar.

[2] = Example 3 secondary (non-urine) odor ranking; set-up: species or system Human; settings: individual panelist scores, scale 1 to 5, 5 extremely unpleasant
Experimental: (§1) The effectiveness of various quinone compounds in reducing urine odor was compared. […] Human female urine was initially collected and pooled by a nurse on staff at Kimberly-Clark Corporation. The pooled urine was added to mason jars in 50-milliliter aliquots using an automated pipette aid. […] The mason jars were placed in an incubator overnight at 37° C.
(§2) In addition to ranking the jars from least to most malodorous (on a scale from 1 to 7, with 7 being the most malodors), panelists were also asked to judge whether there were secondary (non-urine) odors present and, if so, the extent that the secondary odors were unpleasant (on a scale from 1 to 5, with 5 being extremely unpleasant).

[3] = Example 3 urine odor panel ranking; set-up: species or system Human; settings: for Average Urine Odor Ranking (with statistical corrections), Avg. Score: ignoring statistical anomalies
Experimental: as §1, §2
In this assessment, panelists were given instructions to rank the least malodorous jar as “1” and the most malodorous jar as “10,” remaining free to rank the other jars between 2-9.

[4] = Redox potential (redox potentiometry); format: physicochemical
From the text: The ability of quinone compounds to accept electrons from another substance (i.e., be reduced) may be quantified using a technique known as redox potentiometry. Redox potentiometry is a technique that measures (in volts) the affinity of a substance for electrons—its electronegativity—compared with hydrogen (which is set at 0). Substances more strongly electronegative than (i.e., capable of oxidizing) hydrogen have positive redox potentials. Substances less electronegative than (i.e., capable of reducing) hydrogen have negative redox potentials. The greater the difference between the redox potentials of two substances (ΔE), the greater the vigor with which electrons will flow spontaneously from the less positive to the more positive (more electronegative) substance. As is well known in the art, redox potential may be measured using any of a variety of commercially available meters, such as an Oxidation Reduction Potential (ORP) tester commercially available from Hanna Instruments, Inc. of Woonsocket, R. I. The redox potential of the quinone compounds may, for instance, be less than about −50 millivolts (mV), in some embodiments less than about −150 mV, in some embodiments less than about −300 mV, and in some embodiments, less than about −500 mV. Although not always the case, the redox potential may vary based on the number and location of functional groups, such as sulfonic acid, on the quinone structure. For example, 2-sulfonic acid anthraquinone has a redox potential of −380 mV; 2,6-disulfonic acid anthraquinone has a redox potential of −325 mV; and 2,7-disulfonic acid anthraquinone has a redox potential of −313 mV. Likewise, 2-sulfonic acid naphthaquinone has a redox potential of −60 mV. The use of other functional groups may also have an affect on the ultimate redox potential of the compound. For example, Acid Blue 25, which also contains amino- and aramid functional groups, has a redox potential of −605 mV.

[5] = Example 7 urine odor panel ranking (16 millimolar); set-up: species or system Human; settings: 16 millimolar in urine, 1 least, 10 most urine malodor
Experimental: The effectiveness of various quinone compounds in reducing urine odor was compared. […] Human female urine was initially collected and pooled at Kimberly-Clark Corporation. The pooled urine was added to mason jars in 50-milliliter aliquots using an automated pipette aid. Powders of the aforementioned quinone compounds (commercially available from Sigma-Aldrich Chemical Co., Inc. of St. Louis, Missouri and Noveon Hilton Davis, Inc. of Cincinnati, Ohio) were weighed and placed into the mason jars containing 50 milliliters of urine so that the final concentration of the powder was 16 millimolar (equivalent to 1 wt. %). The mason jars were placed in an incubator overnight at 37° C. The experimental setup is set forth in more detail below in Table 21.
Jars were wrapped in foil and placed in an incubator at 37° C. overnight. The jars were divided into four groups (C-F), each sharing the same control jar of urine alone (no powder). Assessments were conducted the following day by asking panelists to rate each jar from 1 (least urine malodor) to 10 (most urine malodor).

[6] = Solubility of powder in urine
[7] = Example 1 urine odor panel ranking; set-up: species or system Human; settings: 8 millimolar in urine; for Avg. Ranking (odor) / Ranking 4 (number of panelists) / Ranking 5 (number of panelists) / Ranking 1 (number of panelists) / Ranking 3 (number of panelists) / Ranking 7 (number of panelists): 1 least, 10 most malodorous
From the text: Human female urine was initially collected and pooled by a nurse on staff at Kimberly-Clark Corporation. […] Powders of Acid Blue 129 and Acid Green 27 (commercially available from Sigma-Aldrich Chemical Co., Inc. of St. Louis, Mo.), as well as D&C Green No. 5 (commercially available from Noveon Hilton Davis, Inc. of Cincinnati, Ohio), were then weighed and placed into the mason jars containing 50 milliliters of urine so that the final concentration of the powder was 8 millimolar (equivalent to 0.5 wt. %). […] A score of “10” was assigned to the most malodorous jar and a score of “1” was assigned to the least malodorous jar.

[8] = Example 5 urine odor panel ranking; set-up: species or system Human
Experimental: Assessments were conducted the following day by asking panelists to rate each jar from 1 (least urine malodor) to 8 (most urine malodor). The results are set forth below in Tables 15-18.

[9] = Example 6 urine odor panel ranking; set-up: species or system Human; settings: as Example 5, 1 least, 8 most urine malodor
From the text: The quinone compounds chosen for this example were Alizarin Blue Black B, Remazol Brilliant Blue R and Acid Green 25. The results are set forth below in Tables 19 and 20.

[10] = Example 3 first grouping, 8 millimolar in urine, scale 1 to 7, 7 most malodorous
[11] = Example 7, 16 mM in 50 milliliters of urine
[12] = Example 3 top performers, after 24 hours
[13] = Example 3 top performers of both groupings, after 24 hours, 1 least, 10 most malodorous
[14] = Example 3 top performers, after 24 hours, 1 least, 10 most malodorous
[15] = Example 5, 8 mM in 50 milliliters of urine
[16] = Example 5 Group A, 8 mM in urine, 1 least, 8 most urine malodor
[17] = Example 3 second grouping, 8 millimolar in urine, 1 least malodorous
[18] = Example 5 Group B, 8 mM in urine, 1 least, 8 most urine malodor

## Cc1ccc(Nc2cccc3c2C(=O)c2cccc(Nc4ccc(C)cc4S(=O)(=O)[O-])c2C3=O)c(S(=O)(=O)[O-])c1.[Na+].[Na+]
[1]
  reducing odor (in words): did not perform as well in reducing odor as D&C Green No. 5
[2]; Example 3 first grouping
  Secondary Odor Ranking: 1
[3]; [10]
  Average Urine Odor Ranking, Avg. Score: 5.8
  Urine Odor Ranking 4 (number of panelists): 1
  Urine Odor Ranking 6 (number of panelists): 3
  Urine Odor Ranking 7 (number of panelists): 1

## O=C1c2ccc(S(=O)(=O)O)cc2C(=O)c2ccc(S(=O)(=O)O)cc21 [2,6-disulfonic acid anthraquinone]
[4]
  redox potential: −325 mV

## O=C1c2ccc(S(=O)(=O)O)cc2C(=O)c2cc(S(=O)(=O)O)ccc21 [2,7-disulfonic acid anthraquinone]
[4]
  redox potential: −313 mV

## O=C1c2ccccc2C(=O)c2cc(S(=O)(=O)O)ccc21 [2-sulfonic acid anthraquinone]
[4]
  redox potential: −380 mV

## O=C1C=C(S(=O)(=O)O)C(=O)c2ccccc21 [2-sulfonic acid naphthaquinone]
[4]
  redox potential: −60 mV

## Nc1c(S(=O)(=O)[O-])cc(Nc2ccccc2)c2c1C(=O)c1ccccc1C2=O.[Na+] [Acid Blue 25]
[5]; Example 7 Group C
  Average Rankings (Group C), Avg. Score: 2.4
  Urine Odor Ranking 1 (number of panelists): 3
  Urine Odor Ranking 4 (number of panelists): 1
  Urine Odor Ranking 5 (number of panelists): 1
[6]; [11]
  Soluble?: Mostly
[2]; Example 3 first grouping
  Secondary Odor Ranking: 2
[2]; [12]
  Secondary Odor Ranking: 4
[4]
  redox potential: −605 mV
[3]; Example 3 first grouping
  urine odor reduction (in words): functioned effectively to reduce odor
[3]; [10]
  Average Urine Odor Ranking, Avg. Score: 3.0
  Urine Odor Ranking 1 (number of panelists): 1
  Urine Odor Ranking 2 (number of panelists): 1
  Urine Odor Ranking 3 (number of panelists): 1
  Urine Odor Ranking 4 (number of panelists): 1
  Urine Odor Ranking 5 (number of panelists): 1
[3]; [13]
  Urine Odor Ranking 4 (number of panelists): 1
  Urine Odor Ranking 7 (number of panelists): 1
  Urine Odor Ranking 9 (number of panelists): 2
  Urine Odor Ranking 10 (number of panelists): 1
[3]; [14]
  Average Urine Odor Ranking, Avg. Score: 6.8
[3]; [12]
  Average Urine Odor Ranking (with statistical corrections), Avg. Score: 8.8

## CCCCc1ccc(Nc2ccc(Nc3ccc(CCCC)cc3S(=O)(=O)[O-])c3c2C(=O)c2ccccc2C3=O)c(S(=O)(=O)[O-])c1.[Na+].[Na+] [Acid Green 27]
[5]; Example 7 Group E
  Average Rankings (Group E), Avg. Score: 6.2
  Urine Odor Ranking 1 (number of panelists): 1
  Urine Odor Ranking 5 (number of panelists): 1
  Urine Odor Ranking 7 (number of panelists): 1
  Urine Odor Ranking 8 (number of panelists): 1
  Urine Odor Ranking 10 (number of panelists): 1
[7]
  reducing urine malodor (in words): functioned effectively in reducing urine malodor
[7]; after 6 hours
  Avg. Ranking (odor): 4.4
  Ranking 4 (number of panelists): 3
  Ranking 5 (number of panelists): 2
[7]; after 24 hours
  Avg. Ranking (odor): 4.5
  Ranking 1 (number of panelists): 1
  Ranking 3 (number of panelists): 2
  Ranking 7 (number of panelists): 3
[6]; [15]
  Soluble?: Mostly
[6]; [11]
  Soluble?: Mostly
[2]; Example 3 second grouping
  Secondary Odor Ranking: 2
[2]; [12]
  Secondary Odor Ranking: 4
[8]; [16]
  Average Rankings (Group A), Avg. Score: 4.25
  Urine Odor Ranking 3 (number of panelists): 1
  Urine Odor Ranking 4 (number of panelists): 2
  Urine Odor Ranking 6 (number of panelists): 1
[3]; [17]
  Average Urine Odor Ranking, Avg. Score: 3.6
  Urine Odor Ranking 2 (number of panelists): 2
  Urine Odor Ranking 4 (number of panelists): 1
  Urine Odor Ranking 5 (number of panelists): 2
[3]; [13]
  Urine Odor Ranking 2 (number of panelists): 1
  Urine Odor Ranking 8 (number of panelists): 2
  Urine Odor Ranking 9 (number of panelists): 1
  Urine Odor Ranking 10 (number of panelists): 1
[3]; [14]
  Average Urine Odor Ranking, Avg. Score: 6.4
[3]; [12]
  Average Urine Odor Ranking (with statistical corrections), Avg. Score: 8.8

## Cc1ccc(Nc2ccc(Nc3ccc(C)cc3S(=O)(=O)[O-])c3c2C(=O)c2ccccc2C3=O)c(S(=O)(=O)[O-])c1.[Na+].[Na+] [D&C Green No. 5]
[5]; Example 7 Group D
  Average Rankings (Group D), Avg. Score: 7
  Urine Odor Ranking 5 (number of panelists): 2
  Urine Odor Ranking 7 (number of panelists): 1
  Urine Odor Ranking 9 (number of panelists): 2
[7]
  reducing urine malodor (in words): functioned effectively in reducing urine malodor
[7]; after 6 hours
  Avg. Ranking (odor): 3.0
  Ranking 1 (number of panelists): 1
  Ranking 3 (number of panelists): 3
  Ranking 5 (number of panelists): 1
[7]; after 24 hours
  Avg. Ranking (odor): 5.2
  Ranking 4 (number of panelists): 3
  Ranking 5 (number of panelists): 1
  Ranking 7 (number of panelists): 2
[6]; [15]
  Soluble?: Yes
[6]; [11]
  Soluble?: Yes
[9]
  Average Rankings, Avg. Score: 6.25
  Urine Odor Ranking 5 (number of panelists): 2
  Urine Odor Ranking 7 (number of panelists): 1
  Urine Odor Ranking 8 (number of panelists): 1
[2]; Example 3 second grouping
  Secondary Odor Ranking: 4
[2]; [12]
  Secondary Odor Ranking: 4
[8]; Example 5 Group B
  odor reduction performance (in words): performed well
[8]; [18]
  Average Rankings (Group B), Avg. Score: 4.25
  Urine Odor Ranking 2 (number of panelists): 1
  Urine Odor Ranking 3 (number of panelists): 1
  Urine Odor Ranking 5 (number of panelists): 1
  Urine Odor Ranking 7 (number of panelists): 1
[3]; Example 3 second grouping
  urine odor reduction (in words): did not perform as well compared to the other quinone compounds
[3]; [17]
  Urine Odor Ranking 4 (number of panelists): 3
  Urine Odor Ranking 5 (number of panelists): 2
[3]; [13]
  Urine Odor Ranking 2 (number of panelists): 1
  Urine Odor Ranking 4 (number of panelists): 1
  Urine Odor Ranking 7 (number of panelists): 2
  Urine Odor Ranking 10 (number of panelists): 1
[3]; [14]
  Average Urine Odor Ranking, Avg. Score: 6.0
[3]; [12]
  Average Urine Odor Ranking (with statistical corrections), Avg. Score: 7.0
